Earlier results as cited in patent US10280177B2 (ALFASIGMA S.P.A., priority 2006, dated 2019).

Conditions: in vivo

reduction of bioavailability compared to the form δ: twenty
Compound: CO[C@H]1/C=C/O[C@@]2(C)Oc3c(C)c(O)c4c(O)c(c5c(nc6cc(C)ccn65)c4c3C2=O)NC(=O)/C(C)=C\C=C\[C@H](C)[C@H](O)[C@@H](C)[C@@H](O)[C@@H](C)[C@H](OC(C)=O)[C@@H]1C [polymorph ?, rifaximin]
